Measured values taken from patent publication US6552080B1, “Fungicidal compounds having a fluorovinyl-or fluoropropenyl-oxyphenyloxime moiety and process for the preparation thereof” (Korea Research Institute of Chemical Technology, priority 1999, dated 2003).
Like-named read-outs stand apart in the source and are kept apart here.

Assays:
Phytophthora infestans = assay type: in vivo
Botrytis cinerae = assay: Fungicidal activity against Cucumber Gray Mold Rot (CGM) disease; assay type: in vivo
Puccinia recondita = assay: Fungicidal activity against Wheat Leaf Rust (WLR) disease; assay type: in vivo; conditions: for WLR (Fungicidal Activities, C.V.): Wheat Leaf Rust
Rhizoctonia solani AG-1 = assay: Fungicidal activity against Rice Sheath Blight (RSB) disease
Erysiphae graminis = assay: Fungicidal activity against Barley Powdery Mildew (BPM) disease; assay type: in vivo; conditions: for BPM (Fungicidal Activities, C.V.): Barley Powdery Mildew
[1] = tested on: Pyricularia oryzae Carvara KA301; assay type: in vivo; conditions: for RCV (Fungicidal Activities, C.V.): Rice Blast

With `CON=C(C(=O)OC)c1ccccc1CON=C(C)c1cccc(OC(F)=C(c2ccc3c(c2)OCO3)C(F)(F)F)c1` [Compound 190] the “Fungicidal Activities TLB (C.V.)” value (Phytophthora infestans; 2 ppm) was 0%, the “Fungicidal Activities TLB (C.V.)” value (Phytophthora infestans; 50 ppm) was 0% and the “Fungicidal Activities CGM (C.V.)” value (Botrytis cinerae; 50 ppm) was 0%. The “Fungicidal Activities WLR (C.V.)” value (Puccinia recondita; 2 ppm) was 93%, the “Fungicidal Activities WLR (C.V.)” value (Puccinia recondita; 50 ppm) was 100% and the “Fungicidal Activities RSB (C.V.)” value (Rhizoctonia solani AG-1; 2 ppm) was 15%. The “Fungicidal Activities RSB (C.V.)” value (Rhizoctonia solani AG-1; 50 ppm) was 65%, the “Fungicidal Activities BPM (C.V.)” value (Erysiphae graminis; 2 ppm) was 91% and the “Fungicidal Activities BPM (C.V.)” value (Erysiphae graminis; 50 ppm) was 100%. For the same compound, the “Fungicidal Activities RCV (C.V.)” value ([1]; 2 ppm) was 66% and the “Fungicidal Activities RCV (C.V.)” value ([1]; 50 ppm) was 93%.
In the case of `COC=C(C(=O)OC)c1ccccc1CON=C(C)c1cccc(OC(F)=C(c2cccc(F)c2)C(F)(F)F)c1` [Compound 159], the “TLB (Fungicidal Activities, C.V.)” value (Phytophthora infestans; Tomato Late Blight, concentration 50 ppm) is reported as 20%, the “CGM (Fungicidal Activities, C.V.)” value (Botrytis cinerae; Cucumber Gray Mold Rot, concentration 50 ppm) is reported as 52% and the “WLR (Fungicidal Activities, C.V.)” value (Puccinia recondita; concentration 2 ppm) is reported as 94%. The “WLR (Fungicidal Activities, C.V.)” value (Puccinia recondita; concentration 10 ppm) was 100%, the “WLR (Fungicidal Activities, C.V.)” value (Puccinia recondita; concentration 50 ppm) was 100% and the “RSB (Fungicidal Activities, C.V.)” value (Rhizoctonia solani AG-1; Rice Sheath Blight, concentration 50 ppm) was 65%. For the same compound, the “BPM (Fungicidal Activities, C.V.)” value (Erysiphae graminis; concentration 2 ppm) was 99%, the “BPM (Fungicidal Activities, C.V.)” value (Erysiphae graminis; concentration 10 ppm) was 100% and the “BPM (Fungicidal Activities, C.V.)” value (Erysiphae graminis; concentration 50 ppm) was 100%. For the same compound, the “RCV (Fungicidal Activities, C.V.)” value ([1]; concentration 2 ppm) was 25%, the “RCV (Fungicidal Activities, C.V.)” value ([1]; concentration 10 ppm) was 91% and the “RCV (Fungicidal Activities, C.V.)” value ([1]; concentration 50 ppm) was 96%.
